In PubChem BioAssay (NCI) one finds TGI data, which are given here for 16 molecules.

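Grown in 96-well plates, cells were treated for 48 hours with each compound at five concentrations. Insufficient inhibition: endpoint recorded as highest concentration tested. Definition used: TGI = concentration required for complete inhibition of growth.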

Assay in all cases: NCI tumour cell line growth inhibition, 48 h
For test [1], the system named is NCI/ADR-RES ovarian.
Test [2] relates to DU-145 prostate.
Test [3] relates to ACHN renal.
The test system of test [4] is HCT-15 colon.
Test [5] deals with NCI-H23 lung.
Test [6] relates to MDA-N.
Test [7] deals with NCI-H522 lung.
The test system of test [8] is SK-MEL-2 melanoma.
Test [9] relates to MDA-MB-435.
For test [10], the system named is PC-3 prostate.
The subject of test [11] is SW-620 colon.
The subject of test [12] is OVCAR-3 ovarian.
Test [13] deals with K-562 leukemia.
Test [14] relates to CAKI-1 renal.
Test [15] has as its system A498 renal.
In test [16] the test system is SK-MEL-5 melanoma.
In test [17] the test system is UACC-62 melanoma.
Test [18] concerns IGROV1 ovarian.
Test [19] concerns SR leukemia.
Test [20] concerns HS 578T breast.

As to `CC1=[N+]([O-])C(C)(C)N(N=O)C1(C)C`, the TGI in [1], in test [2], in test [3], in test [4], in [5] and in test [6] was more than 10 µM each time. Further, the TGI in [7], in test [8], in test [9], in test [10], in [11] and in [12] was more than 10 µM each time. Also, the TGI in test [13] and in test [14] was more than 10 µM each time.

With `CN(C)CCCNC(=O)c1cc(NC(=O)c2cc(NS(=O)(=O)c3ccc4c(c3)C(=O)c3ccccc3C4=O)cn2C)cn1C`, the TGI in test [1], in [2], in [3], in test [4], in [5] and in test [15] was more than 100 µM throughout. Besides, the TGI in test [16], in test [6], in [7], in [8], in test [17] and in test [9] was more than 100 µM throughout. The TGI in [10], in test [11], in [18], in test [19], in [12] and in test [13] was more than 100 µM in each case. Besides, the TGI in test [14] was more than 100 µM.

`O=C1CCCC2=C1CC1=C(CCCC1=O)N2c1ccccc1C(=O)O`: the TGI in [1], in test [3], in test [4], in test [5], in [15] and in test [16] was more than 100 µM each time. The TGI in test [20], in test [17], in test [10], in test [11], in test [18] and in [19] was more than 100 µM in each case. Further, the TGI in test [12], in test [13] and in [14] was more than 100 µM each time.

`CC1=C(C#N)C23C(=O)c4ccccc4C(O)=C2C(=O)C=CC3(O)N1` (stereo not given): the TGI in test [1] is more than 100 µM; in test [2], 7.69 µM; in test [3] it was 19.9 µM; in [4], more than 100 µM; in test [5] it was 31.9 µM; in [15] it was 37.6 µM. Further, the TGI in [16] worked out at 2.75 µM; in test [6], 3.95 µM; in [7], 4.81 µM; in [8], 22.5 µM; in test [17] it was 6.4 µM; in test [9], 9.37 µM. The TGI in test [10] is 28.7 µM; in test [11] it was 12.6 µM; in test [18], 17.2 µM; in test [19], 1.5 µM; in test [12] it was more than 100 µM; in test [13], more than 100 µM. In test [14], this molecule had a TGI of 23.3 µM.

For the molecule `Cc1[nH]n(C2=NCCN2)c(=O)c1C`, the TGI in [1], in test [3], in test [4], in test [5], in [15] and in [16] was more than 100 µM throughout. The TGI in test [20], in [7], in test [8], in [17], in [9] and in test [10] was more than 100 µM in each case. The TGI in test [11], in test [18], in test [19], in [12], in [13] and in test [14] was more than 100 µM throughout.

Take `CC(C)(C)OC(=O)[C@@H]1CCC(=S)N1Cc1ccccc1`: the TGI in test [1], in test [2], in test [3], in test [4], in [5] and in test [15] was more than 100 µM in each case. Besides, the TGI in [16], in test [6], in test [7], in test [8], in test [17] and in test [9] was more than 100 µM throughout. The TGI in test [10], in test [11], in test [18], in test [19], in [12] and in [13] was more than 100 µM in each case. This molecule also gave a TGI in [14] of more than 100 µM.

`C1=Nc2ccc(cc2)N=Cc2ccccc2OCc2cccc(n2)COc2ccccc21`: the TGI in test [1], in test [2], in test [3], in test [4], in [5] and in test [15] was more than 100 µM throughout. Also, the TGI in test [16], in test [6], in test [7], in test [8], in test [17] and in [9] was more than 100 µM each time. In addition, the TGI in test [10], in [11], in test [18], in test [19], in test [12] and in test [13] was more than 100 µM each time. The molecule also returned a TGI in test [14] of more than 100 µM.

Take `CCOC(=O)C(NC(=O)C(CCCCNP(=O)(OCC)OCC)NC(=O)C(C)NC(C)=O)C(C)C` (stereo not given): the TGI in [1], in [2], in test [3], in test [4], in test [5] and in test [15] was more than 100 µM in each case. The TGI in [16], in test [6], in test [8], in test [9], in [10] and in test [11] was more than 100 µM each time. The TGI in test [18], in test [19], in test [12], in test [13] and in test [14] was more than 100 µM throughout.

As for `c1ccc(CSc2ccccc2CN2CCN(Cc3ccccc3SCc3ccccc3)CCN(Cc3ccccc3SCc3ccccc3)CC2)cc1`, the TGI in test [1] was determined as 6.85 µM; in [2] it was 12.3 µM; in [3], 10.7 µM; in test [4] it was 3.3 µM; in [5] it was 2.67 µM; in [15], 5.81 µM. For the same molecule, the TGI in test [16] came out at 2.95 µM; in [6], 3.02 µM; in test [7], 1.76 µM; in test [8], 2.83 µM; in test [17], 3.23 µM; in [9], 12 µM. Besides, the TGI was determined as 2.52 µM in test [10]; 69.2 µM in test [11]; 1.82 µM in [12]; 7.18 µM in [13]; 11.3 µM in [14].

For the molecule `COc1ccc2c(c1)CCN=C2Cc1ccccc1CCCl`, the TGI in [1] was 64.9 µM; in [2], more than 100 µM; in test [3], 79.2 µM; in test [4], more than 100 µM; in [5], 81.8 µM; in test [15], more than 100 µM. Besides, the TGI in [16] was 36.6 µM; in [20], more than 100 µM; in test [7] it was 58.4 µM; in test [8] it was 58.3 µM; in test [17], 52.7 µM; in test [9], 45.4 µM. Besides, the TGI in test [10], in test [11], in test [18], in test [19], in test [12] and in test [13] was more than 100 µM each time. The molecule further showed a TGI in [14] of 63.2 µM.

For `N#CC1(C#N)NC(c2cccnc2)C(C#N)(C#N)NC1c1cccnc1` (stereo not given), the TGI in [1], in test [2], in test [4], in [5], in [15] and in test [16] was more than 100 µM throughout. In addition, the TGI in test [6], in [8], in test [17], in [9], in [10] and in test [11] was more than 100 µM throughout. Moreover, the TGI in test [18], in test [12], in test [13] and in test [14] was more than 100 µM in each case.

Regarding `COC(=O)C(Cc1ccccc1)NC(=O)C(CCC(=O)OCc1ccccc1)NC(=O)OC(C)(C)C` (stereo not given), the TGI in [1], in test [2], in [3], in test [4], in test [5] and in [15] was more than 100 µM in each case. Moreover, the TGI in [16], in [20], in [7], in test [8], in test [17] and in [9] was more than 100 µM each time. For the same molecule, the TGI in test [10], in test [11], in test [18], in test [19], in test [12] and in test [13] was more than 100 µM each time. The molecule further showed a TGI in [14] of more than 100 µM.

Turning to `Oc1cccc(-c2ccc3c4c2O[C@H]2c5[nH]c6ccccc6c5C[C@@]5(O)[C@@H](C3)N(CC3CC3)CC[C@]425)c1`, the TGI in [1] came to 4.69 µM; in test [2], 3.36 µM; in test [3] it was 3.67 µM; in test [4], 3.03 µM; in test [5] it was 5.17 µM; in test [16], 10.3 µM. In addition, the TGI came to 3.05 µM in test [6]; 3.55 µM in [20]; 5.13 µM in test [8]; 3.1 µM in [9]; 3.44 µM in [10]; 6.15 µM in test [11]. For the same molecule, the TGI in test [18] came out at 3.12 µM; in test [12] it was 3.42 µM; in test [14] it was 3.41 µM.

For `O=C(CSc1nnc(Cc2ccccc2)o1)Nc1cccc(Cl)c1`, the TGI in test [3], in [4], in test [5], in test [15], in [16] and in test [7] was more than 100 µM in each case. The TGI in [8], in test [11], in test [18], in test [12], in test [13] and in [14] was more than 100 µM throughout.

With `Cc1cc2nc3c(C#N)c(-c4ccccc4)/c(=C\Nc4ccc(Cl)cc4)c(=O)n3c2cc1C`, the TGI in test [1], in test [3], in test [4], in test [5], in test [15] and in test [16] was more than 100 µM throughout. The TGI in [6], in test [7], in [8], in test [9], in [10] and in [11] was more than 100 µM each time. The TGI in test [12] and in test [14] was more than 100 µM each time.

In the case of `O=C(Nc1cc2c(=O)[nH]c3ccccc3c2oc1=O)c1cnccn1`, the TGI in test [1], in test [2], in test [3], in test [4], in [5] and in test [16] was more than 100 µM each time. Further, the TGI in test [6], in test [7], in test [8], in test [17], in test [9] and in test [10] was more than 100 µM throughout. Further, the TGI in test [11], in test [18], in test [19], in test [12], in [13] and in [14] was more than 100 µM each time.
